In patent publication US20210122739A1, “NOVEL SULFONAMIDE CARBOXAMIDE COMPOUNDS” (Inflazome Limited, priority 2017, published 2021):

Columns and labels:
NLRP3 [1] = biological target: T1, NLRP3 (Homo sapiens, UniProt Q96P20); assay: Human whole blood IL1β release assay; assay type: cell-based; parameters: Plate out 80 μl of whole blood containing 1 μg/ml of LPS; from tissue; host or cells: human whole blood from healthy donors, LPS-primed, nigericin-stimulated; conditions: 1 μg/ml LPS, nigericin 10 μM, IL-1β by AlphaLisa, read-out: HWB IC50
Protocol: For systemic delivery, the ability to inhibit NLRP3 when the compounds are present within the bloodstream is of great importance. For this reason, the NLRP3 inhibitory activity of a number of compounds in human whole blood was investigated in accordance with the following protocol.
Human whole blood in Li-heparin tubes was obtained from healthy donors from a volunteer donor panel. • 1. Plate out 80 μl of whole blood containing 1 μg/ml of LPS in 96-well, clear bottom cell culture plate (Corning #3585) • 2. Add 10 μl compound (8 points half-log dilution with 10 μM top dose) or vehicle (DMSO 0.1% FAC) to the appropriate wells • 3. Incubate for 3 hrs at 37° C., 5% CO2 • 4. Add 10 μl Nigericin (Sigma #N7143) (10 μM FAC) to all wells • 5. Incubate for 1 hr at 37° C., 5% CO2 • 6. At the end of the incubation period, spin plates at 300×g for 5 mins to pellet cells and remove 20 μl of supernatant and add to 96-well v-bottom plates for IL-1β analysis (note: these plates containing the supernatants can be stored at −80° C. to be analysed at a later date) • 7. IL-1β was measured according to the manufacturer protocol (Perkin Elmer-AlphaLisa IL-1 Kit AL220F-5000) • 8. IC50 data is fitted to anon-linear regression equation (log inhibitor vs response-variable slope 4-parameters)

NLRP3 [2] = biological target: T1, NLRP3; assay: THP-1 cells pyroptosis assay; assay type: cell-based; parameters: Seed THP-1 cells (25,000 cells/well) containing 1.0 μg/ml LPS; host or cells: THP-1 cells, LPS-primed, nigericin-stimulated; conditions: 1.0 μg/ml LPS, nigericin 5 μM, resazurin readout
Text: It is well established that the activation of NLRP3 leads to cell pyroptosis and this feature plays an important part in the manifestation of clinical disease (Yan-gang Liu et al., Cell Death & Disease, 2017, 8(2), e2579; Alexander Wree et al., Hepatology, 2014, 59(3), 898-910; Alex Baldwin et al., Journal of Medicinal Chemistry, 2016, 59(5), 1691-1710; Ema Ozaki et al., Journal of Inflammation Research, 2015, 8, 15-27; Zhen Xie & Gang Zhao, Neuroimmunology Neuroinflammation, 2014, 1(2), 60-65; Mattia Cocco et al., Journal of Medicinal Chemistry, 2014, 57(24), 10366-10382; T. Satoh et al., Cell Death & Disease, 2013, 4, e644). Therefore, it is anticipated that inhibitors of NLRP3 will block pyroptosis, as well as the release of pro-inflammatory cytokines (e.g. IL-1β) from the cell.
THP-1 cells (ATCC #TIB-202) were grown in RPMI containing L-glutamine (Gibco #11835) supplemented with 1 mM sodium pyruvate (Sigma #S8636) and penicillin (100 units/ml)/streptomycin (0.1 mg/ml) (Sigma #P4333) in 10% Fetal Bovine Serum (FBS) (Sigma #F0804). The cells were routinely passaged and grown to confluency (˜10^6 cells/ml). On the day of the experiment, THP-1 cells were harvested and resuspended into RPMI medium (without FBS). The cells were then counted and viability (>90%) checked by Trypan blue (Sigma #T8154). Appropriate dilutions were made to give a concentration of 625,000 cells/ml. To this diluted cell solution was added LPS (Sigma #L4524) to give a 1 μg/ml Final Assay Concentration (FAC). 40 μl of the final preparation was aliquoted into each well of a 96-well plate. The plate thus prepared was used for compound screening.
The following method step-by-step assay was followed for compound screening. • 1. Seed THP-1 cells (25,000 cells/well) containing 1.0 μg/ml LPS in 40 μl of RPMI medium (without FBS) in 96-well, black walled, clear bottom cell culture plates coated with poly-D-lysine (VWR #734-0317) • 2. Add […] compound (8 points half-log dilution, with 10 μM top dose) or vehicle (DMSO 0.1% FAC) to the appropriate wells • 3. Incubate for 3 hrs at 37° C. in 5% CO2 • 4. Add 5 μl nigericin (Sigma #N7143) (FAC 5 μM) to all wells • 5. Incubate for 1 hr at 37° C. and 5% CO2 • 6. At the end of the incubation period, spin plates at 300×g for 3 mins and remove supernatant • 7. Then add 50 μl of resazurin (Sigma #R7017) (FAC 100 μM resazurin in RPMI medium without FBS) and incubate plates for a further 1-2 hrs at 37° C. and 5% CO2 • 8. Plates were read in an Envision reader at Ex 560 nm and Em 590 nm • 9. IC50 data is fitted to a non-linear regression equation (log inhibitor vs response-variable slope 4-parameters)

T1 sequence (Q96P20 whole entry): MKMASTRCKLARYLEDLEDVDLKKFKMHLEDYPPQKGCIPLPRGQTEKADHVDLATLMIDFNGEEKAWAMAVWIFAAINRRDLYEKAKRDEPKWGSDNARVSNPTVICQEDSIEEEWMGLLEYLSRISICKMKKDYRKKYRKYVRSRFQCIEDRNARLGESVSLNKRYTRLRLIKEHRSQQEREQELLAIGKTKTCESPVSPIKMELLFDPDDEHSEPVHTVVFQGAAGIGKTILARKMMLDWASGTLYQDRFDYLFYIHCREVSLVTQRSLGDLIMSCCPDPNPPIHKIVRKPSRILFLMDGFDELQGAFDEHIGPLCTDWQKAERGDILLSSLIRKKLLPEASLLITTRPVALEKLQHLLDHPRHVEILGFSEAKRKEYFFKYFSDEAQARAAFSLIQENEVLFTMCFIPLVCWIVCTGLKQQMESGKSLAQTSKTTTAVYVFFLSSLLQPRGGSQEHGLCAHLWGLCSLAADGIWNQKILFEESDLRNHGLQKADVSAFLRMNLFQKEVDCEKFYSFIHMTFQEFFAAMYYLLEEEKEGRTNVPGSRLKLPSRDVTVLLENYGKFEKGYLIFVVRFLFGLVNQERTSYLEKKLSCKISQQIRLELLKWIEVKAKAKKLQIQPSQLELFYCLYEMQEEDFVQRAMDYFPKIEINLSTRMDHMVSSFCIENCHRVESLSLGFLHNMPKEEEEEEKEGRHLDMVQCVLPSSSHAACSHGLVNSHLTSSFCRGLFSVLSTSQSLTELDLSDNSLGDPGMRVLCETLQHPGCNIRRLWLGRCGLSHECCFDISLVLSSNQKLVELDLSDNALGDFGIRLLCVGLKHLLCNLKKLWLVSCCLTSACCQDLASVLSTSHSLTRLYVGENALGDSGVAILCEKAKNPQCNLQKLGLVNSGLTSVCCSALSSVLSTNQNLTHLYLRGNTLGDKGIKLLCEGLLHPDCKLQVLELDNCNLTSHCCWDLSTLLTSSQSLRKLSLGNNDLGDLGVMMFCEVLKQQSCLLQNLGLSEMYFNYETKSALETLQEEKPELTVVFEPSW

IC50 (NLRP3 [1]) [nM]	IC50 (NLRP3 [2]) [nM]	Compound
3200 to 10000	160 to 640	CN(C)C(=O)Cn1ccc(S(=O)(=O)NC(=O)Nc2c3c(cc4c2CCC4)CCC3)n1 [Example 1, 2-(3-(N-((1,2,3,5,6,7-Hexahydro-s-indacen-4-yl)carbamoyl)sulfamoyl)-1H-pyrazol-1-yl)-N,N-dimethylacetamide]
1600 to 3200	160 to 640	CNC(=O)Cn1ccc(S(=O)(=O)NC(=O)Nc2c3c(cc4c2CCC4)CCC3)n1 [Example 2, 2-(3-(N-((1,2,3,5,6,7-Hexahydro-s-indacen-4-yl)carbamoyl)sulfamoyl)-1H-pyrazol-1-yl)-N-methylacetamide]
3200 to 10000	160 to 640	CN(C(=O)c1cc(S(=O)(=O)NC(=O)Nc2c3c(cc4c2CCC4)CCC3)nn1C)C1CCC1 [Example 7, N-Cyclobutyl-3-(N-((1,2,3,5,6,7-hexahydro-s-indacen-4-yl)carbamoyl)sulfamoyl)-N,1-dimethyl-1H-pyrazole-5-carboxamide]
< 400	160 to 640	Cn1nc(S(=O)(=O)NC(=O)Nc2c3c(cc4c2CCC4)CCC3)cc1C(=O)N(CCO)CCO [Example 15, 3-(N-((1,2,3,5,6,7-Hexahydro-s-indacen-4-yl)carbamoyl)sulfamoyl)-N,N-bis(2-hydroxyethyl)-1-methyl-1H-pyrazole-5-carboxamide]
1600 to 3200	160 to 640	CN(CCCO)C(=O)c1cc(S(=O)(=O)NC(=O)Nc2c3c(cc4c2CCC4)CCC3)nn1C [Example 18, 3-(N-((1,2,3,5,6,7-Hexahydro-s-indacen-4-yl)carbamoyl)sulfamoyl)-N-(3-hydroxypropyl)-N,1-dimethyl-1H-pyrazole-5-carboxamide]
800 to 1600	160 to 640	CCN(CCO)C(=O)c1cc(S(=O)(=O)NC(=O)Nc2c3c(cc4c2CCC4)CCC3)nn1C [Example 20, N-Ethyl-3-(N-((1,2,3,5,6,7-hexahydro-s-indacen-4-yl)carbamoyl)sulfamoyl)-N-(2-hydroxyethyl)-1-methyl-1H-pyrazole-5-carboxamide]
400 to 800	40 to 160	COCCN(CCOC)C(=O)c1cc(S(=O)(=O)NC(=O)Nc2c3c(cc4c2CCC4)CCC3)nn1C [Example 26, 3-(N-((1,2,3,5,6,7-Hexahydro-s-indacen-4-yl)carbamoyl)sulfamoyl)-N,N-bis(2-methoxyethyl)-1-methyl-1H-pyrazole-5-carboxamide]
400 to 800	40 to 160	CC(=O)N(C)Cc1cc(S(=O)(=O)NC(=O)Nc2c3c(cc4c2CCC4)CCC3)nn1C(C)C [Example 29, N-((3-(N-((1,2,3,5,6,7-Hexahydro-s-indacen-4-yl)carbamoyl)sulfamoyl)-1-isopropyl-1H-pyrazol-5-yl)methyl)-N-methylacetamide]
1600 to 3200	160 to 640	CNC(=O)c1cc(S(=O)(=O)NC(=O)Nc2c(C(C)C)cc(Cl)cc2C(C)C)nn1C [Example 32, 3-(N-((4-Chloro-2,6-diisopropylphenyl)carbamoyl)sulfamoyl)-N,1-dimethyl-1H-pyrazole-5-carboxamide]
400 to 800		CC(C)c1cc(F)cc(C2CCOCC2)c1NC(=O)NS(=O)(=O)c1cc(C(=O)N(C)C)n(C)n1 [Example 33, 3-(N-((4-Fluoro-2-isopropyl-6-(tetrahydro-2H-pyran-4-yl)phenyl)carbamoyl)sulfamoyl)-N,N,1-trimethyl-1H-pyrazole-5-carboxamide]
< 400	640 to 2560	CC(C)c1cc(F)cc(-c2cnn(C)c2)c1NC(=O)NS(=O)(=O)c1cc(C(=O)N(C)C)n(C)n1 [Example 35, 3-(N-((4-Fluoro-2-isopropyl-6-(1-methyl-H-pyrazol-4-yl)phenyl)carbamoyl)sulfamoyl)-N,N,1-trimethyl-1H-pyrazole-5-carboxamide]
800 to 1600	640 to 2560	CC(C)c1cccc(C(C)C)c1NC(=O)NS(=O)(=O)c1cc(C(=O)N2CC(F)C2)n(C)n1 [Example 39, N-((2,6-Diisopropylphenyl)carbamoyl)-5-(3-fluoroazetidine-1-carbonyl)-1-methyl-1H-pyrazole-3-sulfonamide]
< 400		CC(C)c1cc(F)cc(-c2cccnc2)c1NC(=O)NS(=O)(=O)c1cc(C(=O)N(C)C)n(C)n1 [Example 41, 3-(N-((4-Fluoro-2-isopropyl-6-(pyridin-3-yl)phenyl)carbamoyl)sulfamoyl)-N,N,1-trimethyl-1H-pyrazole-5-carboxamide]
< 400	160 to 640	CC(C)c1cc(F)cc(-c2cncnc2)c1NC(=O)NS(=O)(=O)c1cc(C(=O)N(C)C)n(C)n1 [Example 42, 3-(N-((4-Fluoro-2-isopropyl-6-(pyrimidin-5-yl)phenyl)carbamoyl)sulfamoyl)-N,N,1-trimethyl-1H-pyrazole-5-carboxamide]
800 to 1600	40 to 160	CC(C)c1cccc(C(C)C)c1NC(=O)NS(=O)(=O)c1cc(C(=O)N(C)C2CC2)n(C)n1 [Example 43, N-Cyclopropyl-3-(N-((2,6-diisopropylphenyl)carbamoyl)sulfamoyl)-N,1-dimethyl-1H-pyrazole-5-carboxamide]
3200 to 10000	160 to 640	CC(C)c1ccc(C(C)C)c(NC(=O)NS(=O)(=O)c2cc(C(=O)N(C)C)n(C)n2)c1 [Example 44, 3-(N-((2,5-Diisopropylphenyl)carbamoyl)sulfamoyl)-N,N,1-trimethyl-1H-pyrazole-5-carboxamide]
400 to 800	40 to 160	CC(C)c1cc(F)cc(C(C)C)c1NC(=O)NS(=O)(=O)c1cc(C(=O)N(C)C(C)C)n(C)n1 [Example 47, 3-(N-((4-Fluoro-2,6-diisopropylphenyl)carbamoyl)sulfamoyl)-N-isopropyl-N,1-dimethyl-1H-pyrazole-5-carboxamide]
400 to 800	160 to 640	CCN(C)C(=O)c1cc(S(=O)(=O)NC(=O)Nc2c(C(C)C)cc(F)cc2C(C)C)nn1C [Example 49, N-Ethyl-3-(N-((4-fluoro-2,6-diisopropylphenyl)carbamoyl)sulfamoyl)-N,1-dimethyl-1H-pyrazole-5-carboxamide]
< 400	160 to 640	CNC(=O)c1cc(S(=O)(=O)NC(=O)Nc2c(C(C)C)cc(F)cc2C(C)C)nn1C [Example 50, 3-(N-((4-Fluoro-2,6-diisopropylphenyl)carbamoyl)sulfamoyl)-N,1-dimethyl-1H-pyrazole-5-carboxamide]
< 400	160 to 640	CC(C)c1cccc(C(C)C)c1NC(=O)NS(=O)(=O)c1cc(C(=O)N2CCC2)n(C)n1 [Example 51, 5-(Azetidine-1-carbonyl)-N-((2,6-diisopropylphenyl)carbamoyl)-1-methyl-1H-pyrazole-3-sulfonamide]
